In the oligonucleotide strings, read from the 5' end, every base follows the letter of its sugar. An asterisk marks phosphorothioate; unmarked linkages are phosphodiester. Other units and linkages are bracketed, terminal groups are in braces. A string of capitals states the bases alone. e = 2'-O-(2-methoxyethyl) (MOE); [5mC] = 5-methylcytosine; d = 2'-deoxy (DNA)
What was measured:
[1] = test system: human p38β mRNA; experiment: Inhibition of human p38β mRNA expression in HUVEC cells, Northern blot; format: cell-based
Description: The human Jurkat T-cell line (American Type Culture Collection, Manassas, Va.) was maintained in RPMI 1640 growth media supplemented with 10% fetal bovine serum (FBS; Hyclone, Logan, Utah). HUVEC cells (Clonetics, San Diego, Calif.) were cultivated in endothelial basal media supplemented with 10% FBS (Hyclone, Logan, Utah).
HUVEC cells were allowed to reach 75% confluency prior to use. The cells were washed twice with warm (37° C.) OPTI-MEM™ (Life Technologies). The cells were incubated in the presence of the appropriate culture medium, without the growth factors added, and the oligonucleotide formulated in LIPOFECTIN7 (Life Technologies), a 1:1 (w/w) liposome formulation of the cationic lipid N-[1-(2,3-dioleyloxy)propyl]-n,n,n-trimethylammonium chloride (DOTMA), and dioleoyl phosphotidylethanolamine (DOPE) in membrane filtered water. HUVEC cells were treated with 100 nM oligonucleotide in 10 μg/ml LIPOFECTIN7. Treatment was for four hours.
Total mRNA was isolated using the RNEASY7 Mini Kit (Qiagen, Valencia, Calif.; similar kits from other manufacturers may also be used), separated on a 1% agarose gel, transferred to HYBOND™-N+ membrane (Amersham Pharmacia Biotech, Piscataway, N.J.), a positively charged nylon membrane, and probed. p38 MAPK probes were made using the Prime-A-Gene7 kit (Promega Corporation, Madison, Wis.), a random primer labeling kit, using mouse p38α or p38β cDNA as a template. A glyceraldehyde 3-phosphate dehydrogenase (G3PDH) probe was purchased from Clontech (Palo Alto, Calif.), Catalog Number 9805-1. The fragments were purified from low-melting temperature agarose, as described in Maniatis, T., et al., Molecular Cloning: A Laboratory Manual, 1989. The G3PDH probe was labeled with REDIVUE™ ^32P-dCTP (Amersham Pharmacia Biotech, Piscataway, N.J.) and Strip-EZ labelling kit (Ambion, Austin, Tex.). mRNA was quantitated by a PhosphoImager (Molecular Dynamics, Sunnyvale, Calif.).
Every oligonucleotide tested gave at least 50% inhibition.
Oligonucleotides 17893 (SEQ ID NO. 27), 17899 (SEQ ID NO:33), 17904 (SEQ ID NO. 38), and 17907 (SEQ ID NO. 41) were chosen for dose response studies. HUVEC cells were cultured and treated as described in Example 2 except that the oligonucleotide concentration was varied as shown in Table 6. The Lipofectin7/Oligo ratio was maintained at 3 μg Lipofectin7/100 nM oligo, per ml. mRNA was measured by Northern blot as described in Example 2.

[2] = test system: human p38β mRNA; experiment: Human p38β mRNA expression in T-24 cells; settings: for % P38β mRNA EXPRESSION: initial screen of human p38α oligonucleotides
[3] = test system: human p38α mRNA; experiment: Human p38α mRNA expression in T-24 cells; settings: for % P38α mRNA EXPRESSION: initial screen of human p38α oligonucleotides
[4] = test system: mouse p38α mRNA; experiment: Inhibition of mouse p38α mRNA expression in bEND.3 cells, Northern blot; format: cell-based; settings: mouse p38β antisense oligonucleotides, screened as in Example 4
Description: (§1) bEND.3, a mouse endothelial cell line (gift of Dr. Werner Risau; see Montesano et al., Cell, 1990, 62, 435, and Stepkowski et al., J. Immunol., 1994, 153, 5336) were grown in high-glucose DMEM (Life Technologies, Gaithersburg, Md.) medium containing 10% fetal bovine serum (FBS) and 1% Penicillin/Streptomycinin. Cells were plated at approximately 2×10^5 cells per 100 mm dish. Within 48 hours of plating, the cells were washed with phosphate-buffered saline (Life Technologies). Then, Opti-MEM7 medium containing 3 μg/mL LIPOFECTIN^7 and an appropriate amount of oligonucleotide were added to the cells. As a control, cells were treated with LIPOFECTIN^7 without oligonucleotide under the same conditions and for the same times as the oligonucleotide-treated samples.
(§2) After 4 hours at 37° C., the medium was replaced with high glucose DMEM medium containing 10% FBS and 1% Penicillin/Streptomycinin. The cells were typically allowed to recover overnight (about 18 to 24 hours) before RNA and/or protein assays were performed as described in Example 2. The p38α, p38β and G3PDH probes used were identical to those described in Example 2.
(§3) Rat p38α antisense oligonucleotides were screened in bEND.3 cells for inhibition of p38α and p38β mRNA expression. The concentration of oligonucleotide used was 100 nM. Oligonucleotides 21844 (SEQ ID NO. 47), 21845 (SEQ ID NO. 48), 21872 (SEQ ID NO. 51), 21873 (SEQ ID NO. 52), 21875 (SEQ ID NO. 54), and 21876 (SEQ ID NO.
(§4) Mouse p38β antisense sequences were screened in bEND.3 cells as described in Example 4.

[5] = test system: mouse p38β mRNA; experiment: Inhibition of mouse p38β mRNA expression in bEND.3 cells, Northern blot; format: cell-based; settings: mouse p38β antisense oligonucleotides, screened as in Example 4
Description: as §1, §2, §3, §4

[6] = test system: mouse p38α mRNA; experiment: Mouse p38α mRNA levels in bEND.3 cells, quantitative real-time PCR; format: cell-based; parameters: % Inhib. mouse p38α: concentration or dose not given beside the values; settings: bEND.3 cells, mRNA by quantitative real-time PCR, average of two experiments
Procedure, shortened: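 Mouse bEND.3 cells, antisense oligonucleotide-treated; p38α mRNA measured by one-step real-time RT-PCR (RT 30 min at 48 °C, then 40 cycles) with a FAM/TAMRA probe. Levels normalized to GAPDH or RiboGreen total RNA, and percent inhibition derived from standard curves of untreated-control mRNA.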

[7] = test system: rat p38α mRNA; experiment: Rat p38α mRNA levels in NR-8383 cells, quantitative real-time PCR; format: cell-based; settings: 300 nM oligonucleotide with FuGENE 6, 24 hours, mRNA by quantitative real-time PCR, average of two experiments
[8] = 100 nM oligonucleotide in 10 μg/ml LIPOFECTIN, four hours, Northern blot
[9] = dose 50 nM, relative to control oligonucleotide = 100%
[10] = dose 100 nM, relative to control oligonucleotide = 100%
[11] = dose 200 nM, relative to control oligonucleotide = 100%
[12] = initial screen of human p38β oligonucleotides

ATCCTGAGCTCACAGTCCTC (chimeric, phosphorothioate, further chemistry not given here) [ISIS 17899]
% mRNA EXPRESSION [1, 8]: 5% | % mRNA Inhibition [1, 8]: 95% | % mRNA EXPRESSION ([1]; dose 10 nM): 37% | % mRNA Inhibition ([1]; dose 10 nM): 63% | % mRNA EXPRESSION ([1]; dose 25 nM): 23% | % mRNA Inhibition ([1]; dose 25 nM): 77% | % mRNA EXPRESSION ([1]; dose 50 nM): 18% | % mRNA Inhibition ([1]; dose 50 nM): 82% | % mRNA EXPRESSION ([1]; dose 100 nM): 21% | % mRNA Inhibition ([1]; dose 100 nM): 79% | % p38β mRNA Expression [2, 9]: 89% | % p38β mRNA Expression [2, 10]: 36% | % p38β mRNA Expression [2, 11]: 15% | % p38β mRNA Expression [2, 12]: 56% | % p38α mRNA EXPRESSION [3, 12]: 117%

AoCoAoToTsGsCsTsGsGsGsCsTsTsCsAoGoGoToC (antisense eAe[5mC]eAeTeT*dG*d[5mC]*dT*dG*dG*dG*d[5mC]*dT*dT*d[5mC]*eAeGeGeTe[5mC]) [ISIS 100808]
% p38α mRNA INHIBITION [4]: 13%

AoToCoCoTsCsAsGsCsTsCsGsCsAsGsToCoCoToC (antisense eAeTe[5mC]e[5mC]eT*d[5mC]*dA*dG*d[5mC]*dT*d[5mC]*dG*d[5mC]*dA*dG*eTe[5mC]e[5mC]eTe[5mC]) [ISIS 100809]
% p38α mRNA INHIBITION [4]: 14%

CTCACAGTCTTCATTCACAG (chimeric deoxy gapped, phosphorothioate, further chemistry not given here) [ISIS 100867]
% P38β mRNA EXPRESSION [2]: 33% | % P38α mRNA EXPRESSION [3]: 58%

CTGAGACATTTTCCAGCGGC (phosphorothioate gapmer, further chemistry not given here) [ISIS 100860]
% P38β mRNA EXPRESSION [2]: 71% | % P38α mRNA EXPRESSION [3]: 73%

CoCoCoToGsCsAsGsCsCsGsCsTsGsCsGoGoCoAoC (antisense e[5mC]e[5mC]e[5mC]eTeG*d[5mC]*dA*dG*d[5mC]*d[5mC]*dG*d[5mC]*dT*dG*d[5mC]*eGeGe[5mC]eAe[5mC]) [ISIS 100802]
% p38β mRNA Expression [2, 12]: 47% | % p38β mRNA Inhibition [5]: 35% | % p38α mRNA EXPRESSION [3, 12]: 78%

GCAACAAGAGGCACTTGAAT (eG*e[5mC]*eA*eA*e[5mC]*dA*dA*dG*dA*dG*dG*d[5mC]*dA*d[5mC]*dT*eT*eG*eA*eA*eT; antisense) [ISIS 100877]
% P38β mRNA EXPRESSION [2]: 95% | % P38α mRNA EXPRESSION [3]: 47%

GGCACAAAGCTGATGACTTC (chimeric deoxy gapped, phosphorothioate, further chemistry not given here) [ISIS 100875]
% P38β mRNA EXPRESSION [2]: 90% | % p38α mRNA EXPRESSION ([3]; dose 50 nM): 30% | % p38α mRNA EXPRESSION ([3]; dose 100 nM): 13% | % p38α mRNA EXPRESSION ([3]; dose 200 nM): 8% | % P38α mRNA EXPRESSION [3]: 39%

GTACGTTCTGCGCGCGTGGA (antisense eGeTeAe[5mC]eG*dT*dT*d[5mC]*dT*dG*d[5mC]*dG*d[5mC]*dG*d[5mC]*eGeTeGeGeA) [ISIS 107871]
% p38β mRNA Expression [2, 9]: 41% | % p38β mRNA Expression [2, 10]: 42% | % p38β mRNA Expression [2, 11]: 10% | % p38β mRNA Expression [2, 12]: 60% | % p38α mRNA EXPRESSION [3, 12]: 111%

GoCoAoGoAsCsTsGsAsGsCsCsGsTsAsGoGoCoGoC (antisense eGe[5mC]eAeGeA*d[5mC]*dT*dG*dA*dG*d[5mC]*d[5mC]*dG*dT*dA*eGeGe[5mC]eGe[5mC]) [ISIS 100803]
% p38α mRNA INHIBITION [4]: 18%

TACCAGCGCGTGGCCACATA (antisense eTeAe[5mC]e[5mC]eA*dG*d[5mC]*dG*d[5mC]*dG*dT*dG*dG*d[5mC]*d[5mC]*eAe[5mC]eAeTeA) [ISIS 107875]
% p38β mRNA Expression [2, 9]: 82% | % p38β mRNA Expression [2, 10]: 38% | % p38β mRNA Expression [2, 11]: 40% | % p38β mRNA Expression [2, 12]: 92% | % p38α mRNA EXPRESSION [3, 12]: 112%

TCAAAGGACTGATCATAAGG (eT*e[5mC]*eA*eA*eA*dG*dG*dA*d[5mC]*dT*dG*dA*dT*d[5mC]*dA*eT*eA*eA*eG*eG; antisense) [ISIS 100874]
% P38β mRNA EXPRESSION [2]: 76% | % p38α mRNA EXPRESSION ([3]; dose 50 nM): 47% | % p38α mRNA EXPRESSION ([3]; dose 100 nM): 27% | % p38α mRNA EXPRESSION ([3]; dose 200 nM): 13% | % P38α mRNA EXPRESSION [3]: 42%

TCCAACAGACCAATCACATT (phosphorothioate gapmer, further chemistry not given here) [ISIS 100864]
% Inhib. mouse p38α [6]: 83% | % P38β mRNA EXPRESSION [2]: 70% | % Inhib. rat p38α [7]: 57% | % P38α mRNA EXPRESSION [3]: 66%

TGAATGTATATACTTTAGAC (eT*eG*eA*eA*eT*dG*dT*dA*dT*dA*dT*dA*d[5mC]*dT*dT*eT*eA*eG*eA*e[5mC]; antisense) [ISIS 100866]
% P38β mRNA EXPRESSION [2]: 65% | % P38α mRNA EXPRESSION [3]: 55%

TGCCCTGGAGCAGCTCAGCC (antisense eTeGe[5mC]e[5mC]e[5mC]*dT*dG*dG*dA*dG*d[5mC]*dA*dG*d[5mC]*dT*e[5mC]eAeGe[5mC]e[5mC]) [ISIS 107878]
% p38β mRNA Expression [2, 9]: 70% | % p38β mRNA Expression [2, 10]: 43% | % p38β mRNA Expression [2, 11]: 27% | % p38β mRNA Expression [2, 12]: 54% | % p38α mRNA EXPRESSION [3, 12]: 112%

TGTAAGCTTCTGACATTTCA (phosphorothioate gapmer, further chemistry not given here) [ISIS 100865]
% P38β mRNA EXPRESSION [2]: 63% | % P38α mRNA EXPRESSION [3]: 64%

TTCTCTTATCTGAGTCCAAT (chimeric deoxy gapped, phosphorothioate, further chemistry not given here) [ISIS 100872]
% P38β mRNA EXPRESSION [2]: 77% | % p38α mRNA EXPRESSION ([3]; dose 50 nM): 45% | % p38α mRNA EXPRESSION ([3]; dose 100 nM): 18% | % p38α mRNA EXPRESSION ([3]; dose 200 nM): 17% | % P38α mRNA EXPRESSION [3]: 37%

From patent publication US20040171566A1, “Antisense modulation of p38 mitogen activated protein kinase expression” (priority 1999, published 2004)
